{"source": "patent US4795808A", "about": "“Anthracycline tetrasaccharides” (Hoechst Aktiengesellschaft, priority 1985, dated 1989)", "system": "L1210 leukemia cells", "test": "cell proliferation test on L1210 leukemia cells (C14-thymidine incorporation)", "assay_type": "cell-based", "settings": "Mus musculus, 72 hours, 37° C., 5% of CO2, concentration which reduces incorporation of radioactive thymidine by 50% vs control", "method": "The inhibiting action was determined (cell proliferation test) as described below:\n[…] cells in the exponential growth phase (5×10^3 /ml in RPMI 1640) are incubated in a microtiter plate with different concentrations of the test substance for 72 hours (37° C., 5% of CO2, 95% relative atmospheric humidity). Controls comprise cells incubated only with fresh medium. All the determinations are carried out as 4-fold determinations. After 65 hours, 50 μl of C14-thymidine (1.5 μC/ml) are added in order to radiolabel the cell DNA. After incubation for 7 hours, the cells are filtered off with suction and the DNA is precipitated with 5% strength trichloroacetic acid and washed with water and methanol in succession. After drying at 50° C., the radioactivity incorporated into the DNA is determined after addition of 5 ml of scintillation liquid. The results are stated as ratios of the scintillation index after incubation with the test substance in percent of the untreated control. From the measurement values thus obtained, the dose/effect curve is determined, and the IC50, that is to say the concentration which reduces the incorporation of radioactive thymidine by 50% under test conditions in comparison with the control, is determined graphically."}
{"smiles": "CCC1(O)CC(OC2CC(N(C)C)C(OC3CCC(OC4C=CC(=O)C(C)O4)C(C)O3)C(C)O2)c2c(O)c3c(c(O)c2C1OC1CC(N(C)C)C(O)C(C)O1)C(=O)c1cccc(O)c1C3=O", "note": "(stereo not shown) [cytorhodin SE gluconate]", "values": [{"measurement": "IC50", "result": 6, "unit": "ng/mL"}]}
